Data: patent US10696692B2, “Amido-benzyl sulfone and sulfoxide derivates” (Forma TM, LLC, priority 2012, dated 2020)
Where two headings read alike, the source gives them in different places.

Columns and labels:
NAMPT = NAMPT (Homo sapiens (Human), UniProt P43490); assay: Assay 1: Biochemical Inhibition Assay (NAMPT enzymatic reaction, NMN quantified by mass spectrometry); settings: read-out: Biochemical (IC50);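 note: recombinant His-tagged human NAMPT preincubated with compound 15 min, then reacted 30 min at rt with 1 µM NAM, 100 µM PRPP, 2.5 mM ATP, NMN product read by RapidFire MS, normalized to L-Cystathionine internal standard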
Sequence of NAMPT (P43490 whole entry): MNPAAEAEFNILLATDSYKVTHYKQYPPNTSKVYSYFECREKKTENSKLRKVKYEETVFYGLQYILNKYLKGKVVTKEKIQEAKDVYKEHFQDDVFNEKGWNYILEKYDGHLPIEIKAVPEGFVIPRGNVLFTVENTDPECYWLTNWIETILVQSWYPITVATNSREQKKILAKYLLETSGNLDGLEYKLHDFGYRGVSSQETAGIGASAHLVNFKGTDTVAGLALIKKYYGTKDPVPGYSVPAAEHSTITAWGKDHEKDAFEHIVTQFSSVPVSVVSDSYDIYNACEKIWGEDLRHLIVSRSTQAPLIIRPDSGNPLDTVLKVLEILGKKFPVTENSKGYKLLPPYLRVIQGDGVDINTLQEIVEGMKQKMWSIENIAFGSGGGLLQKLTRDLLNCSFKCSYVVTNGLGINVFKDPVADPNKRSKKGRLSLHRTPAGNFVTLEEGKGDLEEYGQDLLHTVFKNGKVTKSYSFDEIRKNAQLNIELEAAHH

A2780 cells = assay: Assay 2: In-Vitro Cell Proliferation Assay (A2780 cells, SRB readout, 72 hours); assay type: cell-based; settings: A2780 cells, 72 hours, SRB, read-out: Cell Proliferation (IC50);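 note: viable cells counted via sulforhodamine B staining, absorbance at 570 nm, after 72 h exposure at 37 °C, DMSO 0.1% as control, media-only background subtracted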

`O=C(NCc1ccc(S(=O)(=O)N2CCCCC2)cc1)c1ccn2cncc2c1` [Example 308, N-[[4-(1-piperidylsulfonyl)phenyl]methyl]imidazo[1,5-a]pyridine-7-carboxamide] gave an IC50 (NAMPT) of 1420 nM and an IC50 (A2780 cells; Homo sapiens, A2780, 72 h) of 2000 nM.

`O=C(NCc1ccc(S(=O)(=O)[C@@H]2CCOC2)cc1)c1cc2cnccc2[nH]1` [Example 225, N-[[4-[(3R)-tetrahydrofuran-3-yl]sulfonylphenyl]methyl]-1H-pyrrolo[3,2-c]pyridine-2-carboxamide] showed an IC50 (NAMPT) of 118 nM and an IC50 (A2780 cells; Homo sapiens, A2780, 72 h) of 320 nM.

Work on `O=C(NCc1ccc(S(=O)(=O)N2CCC3(CCCN3)C2)cc1)c1ccc2nccn2c1` (stereo not shown) [Example 257, N-[[4-(1,7-diazaspiro[4.4]nonan-7-ylsulfonyl)phenyl]methyl] imidazo[1,2-a]pyridine-6-carboxamide] yielded an IC50 (NAMPT) of 46.8 nM and an IC50 (A2780 cells) of 26.5 nM.

`O=C(NCc1ccc(S(=O)(=O)N2CCC3(CCCN3)CC2)cc1)c1ccc2nccn2c1` [Example 321, N-[[4-(1,8-diazaspiro[4.5]decan-8-ylsulfonyl)phenyl]methyl] imidazo[1,2-a]pyridine-6-carboxamide] showed an IC50 (NAMPT) of 65.1 nM and an IC50 (A2780 cells; Homo sapiens, A2780, 72 h) of 54 nM.

In the case of `O=C(NCc1ccc(S(=O)(=O)N2CCC3(CCCN3)C2)cc1)c1ccc2nccn2c1` (stereo not shown) [Example 255, N-[[4-(1,7-diazaspiro[4.4]nonan-7-sulfonyl)phenyl]methyl] imidazo[1,2-a]pyridine-6-carboxamide], the IC50 (NAMPT) is reported as 57 nM and the IC50 (A2780 cells; Homo sapiens, A2780, 72 h) is reported as 36.2 nM.

With `CC(=O)N1CCCN(S(=O)(=O)c2ccc(CNC(=O)c3ccc4nccn4c3)cc2)CC1` [Example 100, Imidazo[1,2-a]pyridine-6-carboxylic acid 4-(4-acetyl-[1,4]diazepane-1-suIfonyl)-benzylamide] the IC50 (NAMPT) was 25.7 nM and the IC50 (A2780 cells; Homo sapiens, A2780, 72 h) was 25.4 nM.

For `CCN1CCC([S+]([O-])c2ccc(CNC(=O)N3Cc4ccncc4C3)cc2)CC1` (stereo not shown) [Example 385, N-[[4-[(1-ethyl-4-piperidyl)sulfinyl]phenyl]methyl]-1,3-dihydropyrrolo[3,4-c]pyridine-2-carboxamide], the IC50 (NAMPT) was 30.2 nM and the IC50 (A2780 cells; Homo sapiens, A2780, 72 h) was 56.7 nM.

Compound `O=C(NCc1ccc(S(=O)(=O)N2CCC[C@@H](O)C2)cc1)c1cc2ccncc2o1` [Example 82, Furo[2,3-c]pyridine-2-carboxylic acid 4-((R)-3-hydroxy-piperidine-1-sulfonyl)-benzylamide] has an IC50 (NAMPT) of 26.1 nM and an IC50 (A2780 cells) of 34.8 nM.

`O=C(NCc1ccc(S(=O)(=O)C2CCN(CC(F)(F)F)CC2)cc1)c1ccc2nccn2c1` [Example 210, N-[[4-[[1-(2,2,2-trifluoroethyl)-4-piperidyl)sulfonyl]phenyl]methyl]imidazo[1,2-a]pyridine-6-carboxamide] gave an IC50 (NAMPT) of 17.7 nM and an IC50 (A2780 cells; Homo sapiens, A2780, 72 h) of 3.47 nM.

`O=C(NCc1ccc(S(=O)(=O)N2CCC(NCC(F)F)CC2)cc1)c1cnc2[nH]ncc2c1` [Example 37, 1H-Pyrazolo[3,4-b]pyridine-5-carboxylic acid 4-[4-(2,2-difluoro-ethylamino)-piperidine-1-sulfonyl]-benzylamide] gave an IC50 (NAMPT) of 44.1 nM and an IC50 (A2780 cells; Homo sapiens, A2780, 72 h) of 13.9 nM.

Work on `O=C(NCc1ccc(S(=O)(=O)N2CCC3(CCNC3)CC2)cc1)c1ccc2nccn2c1` [Example 152, Imidazo[1,2-a]pyridine-6-carboxylic acid 4-(2,8-diaza-spiro[4.5]decane-8-sulfonyl)-benzylamide] yielded an IC50 (NAMPT) of 32.1 nM and an IC50 (A2780 cells; Homo sapiens, A2780, 72 h) of 30.5 nM.

In the case of `CC(C)N1CCC([S+]([O-])c2ccc(CNC(=O)c3cnc4[nH]ncc4c3)cc2)CC1` (stereo not shown) [Example 366, N-[[4-[(1-isopropyl-4-piperidyl)sulfinyl]phenyl]methyl]-1H-pyrazolo[3,4-b]pyridine-5-carboxamide], the IC50 (NAMPT) is reported as 29 nM and the IC50 (A2780 cells; Homo sapiens, A2780, 72 h) is reported as 77.6 nM.

Compound `O=C(NCc1ccc(S(=O)(=O)N2CCOCC2)cc1)c1cnc2nccn2c1` [Example 15, Imidazo[1,2-a]pyrimidine-6-carboxylic acid 4-(morpholine-4-sulfonyl)-benzylamide] has an IC50 (NAMPT) of 6.8 nM and an IC50 (A2780 cells; Homo sapiens, A2780, 72 h) of 624 nM.

With `O=C(NCc1ccc(S(=O)(=O)N2CC3CC2CO3)cc1)c1cc2ccncc2o1` (stereo not shown) [Example 304, N-[[4-(2-oxa-5-azabicyclo[2.2.1]heptan-5-ylsulfonyl)phenyl]methyl]furo [2,3-c]pyridine-2-carboxamide] the IC50 (NAMPT) was 65.2 nM and the IC50 (A2780 cells; Homo sapiens, A2780, 72 h) was 41.9 nM.

For `CC(C)(C)OC(=O)N1CCC2(CC1)CN(S(=O)(=O)c1ccc(CNC(=O)c3ccc4nccn4c3)cc1)CCO2` [Example 124, 4-(4-{[(Imidazo[1,2-a]pyridine-6-carbonyl)-amino]-methyl}-benzenesulfonyl)-1-oxa-4,9-diaza-spiro[5.5]undecane-9-carboxylic acid tert-butyl ester], the IC50 (NAMPT) was 40.5 nM and the IC50 (A2780 cells; Homo sapiens, A2780, 72 h) was 4.65 nM.

In the case of `O=C(NCc1ccc(S(=O)(=O)C2CCOCC2)cc1)c1cnc2[nH]ncc2c1` [Example 198, N-[(4-tetrahydropyran-4-ylsulfonylphenyl)methyl]-1H-pyrazolo[3,4-b]pyridine-5-carboxamide], the IC50 (NAMPT) is reported as 308 nM and the IC50 (A2780 cells; Homo sapiens, A2780, 72 h) is reported as 452 nM.

Compound `COCCN1CCN(S(=O)(=O)c2ccc(CNC(=O)c3cc4ccncc4o3)cc2)CC1` [Example 298, N-[[4-[4-(2-methoxyethyl)piperazin-1-yl]sulfonylphenyl]methyl]furo [2,3-c]pyridine-2-carboxamide] has an IC50 (NAMPT) of 90.6 nM and an IC50 (A2780 cells; Homo sapiens, A2780, 72 h) of 24.6 nM.

With `CC(C)(C)OC(=O)N1CCCC2(C1)CN(S(=O)(=O)c1ccc(CNC(=O)c3ccc4nccn4c3)cc1)C2` [Example 238, tert-butyl 2-[4-[(imidazo[1,2-a]pyridine-6-carbonylamino)methyl]phenyl] sulfonyl-2,8-diazaspiro[3.5]nonane-8-carboxylate] the IC50 (NAMPT) was 11.8 nM and the IC50 (A2780 cells; Homo sapiens, A2780, 72 h) was 1.83 nM.

Compound `CC(=O)N(C)C1CCN(S(=O)(=O)c2ccc(CNC(=O)c3ccc4nccn4c3)cc2)C1` (racemic) [Example 101, Imidazo[1,2-a]pyridine-6-carboxylic acid 4-[3-(acetyl-methyl-amino)-pyrrolidine-1-sulfonyl]-benzylamide] has an IC50 (NAMPT) of 20.3 nM and an IC50 (A2780 cells; Homo sapiens, A2780, 72 h) of 9.7 nM.

Compound `O=C(NCc1ccc(S(=O)(=O)C2CCN(CC(F)(F)F)CC2)cc1)c1cnc2nccn2c1` [Example 64, Imidazo[1,2-a]pyrimidine-6-carboxylic acid 4-[1-(2,2,2-trifluoro-ethyl)-piperidine-4-sulfonyl]-benzylamide] has an IC50 (NAMPT) of 3.7 nM and an IC50 (A2780 cells) of 8.8 nM.

With `O=C(NCc1ccc(S(=O)(=O)N2CC3CCC(F)(F)C3C2)cc1)c1ccc2nccn2c1` (single isomer, unassigned) [Example 73, cis-Imidazo[1,2-a]pyridine-6-carboxylic acid 4-(4,4-difluoro-hexahydro-cyclopenta[c]pyrrole-2-sulfonyl)-benzylamide] the IC50 (NAMPT) was 3 nM and the IC50 (A2780 cells) was 0.8 nM.

Work on `CS(=O)(=O)N1CCCC(S(=O)(=O)c2ccc(CNC(=O)c3cnc4[nH]ncc4c3)cc2)C1` (stereo not shown) [Example 353, N-[[4-[(1-methylsulfonyl-3-piperidyl)sulfonyl)phenyl]methyl]-1H-pyrazolo[3,4-b]pyridine-5-carboxamide] yielded an IC50 (NAMPT) of 3970 nM and an IC50 (A2780 cells; Homo sapiens, A2780, 72 h) of 2000 nM.

Work on `CC(C)(C)OC(=O)N1CC2CN(S(=O)(=O)c3ccc(CNC(=O)c4ccc5nccn5c4)cc3)CC2C1` (racemic) [Example 137, cis-5-(4-{[(Imidazo[1,2-a]pyridine-6-carbonyl)-amino]-methyl}-benzenesulfonyl)-hexahydro-pyrrolo[3,4-c]pyrrole-2-carboxylic acid tert-butyl ester] yielded an IC50 (NAMPT) of 10.5 nM and an IC50 (A2780 cells; Homo sapiens, A2780, 72 h) of 4.23 nM.

In the case of `O=C(NCc1ccc(S(=O)(=O)C2CCNCC2)cc1)c1cc2ccncc2s1` [Example 204, N-[[4-(4-piperidylsulfonyl)phenyl]methyl]thieno[2,3-c] pyridine-2-carboxamide], the IC50 (NAMPT) is reported as 66 nM and the IC50 (A2780 cells; Homo sapiens, A2780, 72 h) is reported as 137 nM.

Compound `O=C(NCc1ccc(S(=O)(=O)N2CCC(CO)CC2)cc1)c1cc2ccncc2o1` [Example 299, N-[[4-[[4-(hydroxymethyl)-1-piperidyl]sulfonyl]phenyl]methyl]furo[2,3-c]pyridine-2-carboxamide] has an IC50 (NAMPT) of 24.4 nM and an IC50 (A2780 cells; Homo sapiens, A2780, 72 h) of 11.1 nM.

With `CC(C)N1CCC(S(=O)(=O)c2ccc(CNC(=O)c3cc4cnccc4[nH]3)cc2)CC1` [Example 340, N-[[4-[(1-isopropyl-4-piperidyl)sulfonyl]phenyl]methyl]-1H-pyrrolo[3,2-c]pyridine-2-carboxamide] the IC50 (NAMPT) was 88.5 nM and the IC50 (A2780 cells; Homo sapiens, A2780, 72 h) was 26.6 nM.

In the case of `O=C(NCc1ccc(S(=O)(=O)C2CCCOC2)cc1)c1cc2ccncc2o1` (racemic) [Example 168, Furo[2,3-c]pyridine-2-carboxylic acid 4-(tetrahydro-pyran-3-sulfonyl)-benzylamide], the IC50 (NAMPT) is reported as 30.4 nM and the IC50 (A2780 cells; Homo sapiens, A2780, 72 h) is reported as 50.3 nM.

`CCCN1CCC([S+]([O-])c2ccc(CNC(=O)c3cc4ccncc4o3)cc2)CC1` (stereo not shown) [Example 358, N-[[4-[(1-propyl-4-piperidyl)sulfinyl]phenyl]methyl]furo[2,3-c]pyridine-2-carboxamide] showed an IC50 (NAMPT) of 19.3 nM and an IC50 (A2780 cells) of 4.58 nM.

Work on `O=C(NCc1ccc(S(=O)(=O)N2CC3CCC(C2)O3)cc1)c1cc2cnccc2[nH]1` [Example 2, 1H-Pyrrolo[3,2-c]pyridine-2-carboxylic acid 4-(8-oxa-3-aza-bicyclo[3.2.1]octane-3-sulfonyl)-benzylamide] yielded an IC50 (NAMPT) of 28.1 nM and an IC50 (A2780 cells; Homo sapiens, A2780, 72 h) of 13.8 nM.

`CC(=O)N1CCC(S(=O)(=O)c2ccc(CNC(=O)c3cnc4nccn4c3)cc2)CC1` [Example 86, Imidazo[1,2-a]pyrimidine-6-carboxylic acid 4-(1-acetyl-piperidine-4-sulfonyl)-benzylamide] was tested, and the IC50 (NAMPT) was 5.1 nM and the IC50 (A2780 cells) was 527 nM.

Compound `CN1CCC2(CC1)CN(S(=O)(=O)c1ccc(CNC(=O)c3ccc4nccn4c3)cc1)C2` [Example 271, N-[[4-[(7-methyl-2,7-diazaspiro[3.5]nonan-2-yl)sulfonyl]phenyl]methyl] imidazo[1,2-a]pyridine-6-carboxamide] has an IC50 (NAMPT) of 27.5 nM and an IC50 (A2780 cells; Homo sapiens, A2780, 72 h) of 12.1 nM.

`O=C(NCc1ccc(S(=O)(=O)N2CC3(CCCNC3)C2)cc1)c1ccc2nccn2c1` [Example 253, N-[[4-(2,8-diazaspiro[3,5]nonan-2-ylsulfonyl)phenyl]methyl] imidazo[1,2-a]pyridine-6-carboxamide] gave an IC50 (NAMPT) of 27.4 nM and an IC50 (A2780 cells; Homo sapiens, A2780, 72 h) of 31.3 nM.
